According to article PMC6691761, “Potential multifunctional agents with anti-hepatoma and anti-inflammation properties by inhibiting NF-кB activation” (Journal of Enzyme Inhibition and Medicinal Chemistry, 2019):

Columns and labels:
[1] = test system: NF-κB p65 nuclear translocation in TNF-α-stimulated HepG2 cells; assay: NF-κB p65 nuclear translocation, immunofluorescence, HepG2; format: cell-based, human; details: HepG2, TNF-α 10 ng/mL, 4.0 μM
Method: (§1) RAW264.7 cells were pretreated in 96-well plates with LPS (1 μg/mL) for 15 min and then treated with 96 for 2 h. Similarly, HepG2 cells were pretreated with TNF-α (10 ng/mL) for 15 min and then treated with 96 for 4 h. The cells were fixed with 2% paraformaldehyde for 15 min at 37 °C and permeabilized using 0.1% Triton X-100 for 10 min at RT. After blockage with 3% BSA for 30 min, the cells were incubated with anti-NF-κB p65 antibody (NOVUS BIOLOGICALS, Colorado, USA) at 4 °C overnight. After washing, the anti-mouse Alexa488-conjugated secondary antibody (Jackson Immuno Research, West Grove, PA) was incubated for 30 min at RT. After washed with PBS, the cells were incubated in 4-6-diamidino-2-phenyindole (DAPI; Sigma, St. Louis, MO) for 15 min in the dark at RT. The cell images were simultaneously viewed using a microscopy system in High Throughput Screen (Operetta, PerkinElmer, Waltham, MA).

[2] = test system: Bcl-2 expression in HepG2 xenografts; assay: Western blot, Bcl-2 in HepG2 xenografts; format: in vivo, Balb/c nude mice; details: 0.2, 1.0 and 5.0 mg/kg
Method: (§2) The HepG2 cells xenografts were established using the Balb/c nude mice (female, 7-week-old, 17–19 g, n = 30) (Shanghai Laboratory Animal Center, Shanghai Shi, China) were used to investigate the anti-hepatoma effect of 96. Animal experiments were reviewed and approved by the Binzhou Medical University Experimental Animal Committee. Briefly, HepG2 cells (1 × 10^7/0.2 ml PBS/mouse) were inoculated subcutaneously. Three days after the inoculation, the mice were randomly divided into five groups: the saline treated group (Control), 96 (0.2 mg/kg) group, 96 (1.0 mg/kg) treated group, 96 (5.0 mg/kg) treated group, and DOX (1.0 mg/kg) treated group. 96 were dissolved in saline containing 1% of DMSO and administered intraperitoneally every 2 d for 20 days. DOX was also administered intraperitoneally every 2 d for 20 d. The body weight and HepG2 xenografts volumes were recorded from the day of treatment, and xenografts volumes were calculated using the equation: tumour volume = length×(width)[2]×π/6. At the end of the experiment, mice were sacrificed and the xenografts were obtained for western blotting, HE staining and immunohistochemistry staining.
Western blotting was performed to detect the expression of Bcl-2, Bax and C-caspase-3 in HepG2 xenografts. Fresh HepG2 xenografts tissues were lysed and the obtained proteins were processed as the protein obtained from the HepG2 cells.

[3] = test system: human liver hepatocellular carcinoma cell line (HepG2); assay: Cytotoxicity, MTT assay, HepG2; format: cell-based; details: for IC50: MTT, 24 h
Text: Compounds 83–102 were screened against human neoplastic cell lines, such as human breast cancer cells (MCF-7), human colon cancer cells (HCT116), human lung carcinoma cells (A549), human gastric adenocarcinoma cells (SGC7901), human liver hepatocellular carcinoma cell line (HepG2), human cervical carcinoma cells (HeLa), human acute mononuclear granulocyte leukaemia (THP-1), and human normal hepatic cell line (LO2) using modified MTT assay. All the cells were obtained from the American Type Culture Collection (ATCC, Manassas, VA). The cells were cultured in DMEM or 1640. Positive controls (Doxorubicin (DOX) and Curcumin) and BAPs were initially dissolved in dimethyl sulphoxide (DMSO). Experimental concentration of DMSO was always 0.1% (v/v). The concentrations of BAPs and positive controls were 50, 20, 10, 5, 2.5, 1, 0.5, 0.1, 0.05, and 0.01 μg/mL.
The cells (1 × 10^4 cells/well) were seeded in a 96-well plate and incubated for 24 h. Cells treated with serial concentrations of drugs were incubated for another 24 h. After the media removed, 20 μL of MTT (5 mg/mL) solution was added and incubated for 4 h at 37 °C. The MTT solution was removed and then 150 μL of DMSO was added. The optical density was measured with a multi-well plate reader (TECAN, Mӓnnedorf, Switzerland) at 570 nm. The results are expressed as a decrease in the cell viability (%) in comparison to untreated controls. The concentration of each compound was examined in triplicate, and the IC50 values are expressed in Table 1.

[4] = test system: TNF-α expression in HepG2 xenografts; assay: Immunohistochemistry staining of TNF-α in HepG2 xenografts; format: in vivo, Balb/c nude mice; details: 96 5.0 mg/kg, DOX 1.0 mg/kg, versus model group
Method: as §2
The HepG2 xenografts tissues were embedded using the paraffin, and sectioned for HE staining and immunohistochemistry staining. HE staining was performed routinely. The immunohistochemistry staining carried out as following. […]

[5] = test system: NF-κB p65 nuclear translocation in LPS-stimulated RAW264.7 cells; assay: NF-κB p65 nuclear translocation, immunofluorescence, RAW264.7; format: cell-based; details: RAW264.7, LPS 1.0 μg/mL, 4.0 μM
Method: as §1

[6] = test system: p-IκBα in TNF-α-stimulated HepG2 cells; assay: TNF-α-stimulated phosphorylation of IκBα in HepG2 cells; format: cell-based, human; details: HepG2, 1.0, 2.0, and 4.0 μM
Method: (§3) The HepG2 cells were treated with BAP 96 at different concentrations (1.0, 2.0, and 4.0 µM) for 3 h, and washed twice by PBS. The cells were lysed and the extracted proteins of cell lysates were separated by 10% SDS-PAGE gel electrophoresis, then transferred onto polyvinylidene fluorides membranes. The membranes were probed with antibodies and visualized using an enhanced chemiluminescence (ECL) detection kit.
(§4) It is known that NF-κB has been implicated in the crossroad of inflammation and cancer[25]^,[26]. In our previous study, some BAPs (such as 23 and 67) could inhibit NF-κB activation by inhibiting the phosphorylation of NF-κB (P65) and IκB[13]^,[14]. Herein, it is an urgent to resolve whether 96 has the same mechanism of action as 23 and 67. Therefore, the RAW264.7 cells were pretreated with LPS, and then treated with different concentrations (1.0, 2.0, 4.0 μM) of 96. […] Similarly, the HepG2 cells were pretreated with TNF-α, then treated with different concentrations (1.0, 2.0, and 4.0 μM) of 96.

[7] = test system: Bcl-2 expression in HepG2 cells; assay: Western blot, Bcl-2 expression in HepG2 cells; format: cell-based, human; details: HepG2, 1.0, 2.0, and 4.0 μM
Method: as §3

[8] = test system: C-caspase-3 expression in HepG2 cells; assay: Western blot, C-caspase-3 expression in HepG2 cells; format: cell-based, human; details: HepG2, 1.0, 2.0, and 4.0 μM
Method: as §3

[9] = test system: p-IκBα in LPS-stimulated RAW264.7 cells; assay: LPS-stimulated phosphorylation of IκBα in RAW264.7 cells; format: cell-based; details: RAW264.7, 1.0, 2.0, 4.0 μM
Method: as §3, §4

For CN1CC(=Cc2cccc(N=Cc3cc(Br)ccc3O)c2)C(=O)C(=Cc2ccccc2F)C1 [Compound 96], the p65 nuclear translocation [1] was “prevented the p65 nuclear translocation”, the “Expression of Bcl-2 in HepG2 xenografts” value [2] was “dose-dependently decreased” and the IC50 ([3]; Homo sapiens, HepG2, 24 h) was < 2000 nM. For the same compound, the IC50 [3] was 1000 ± 400 nM, the “HepG2 SI (selectivity index)” value ([3]; quotient of IC50 towards LO2 cells) was 19.9 and the “TNF-α expression, immunohistochemistry” value [4] was “significantly reduced”. For the same compound, the p65 nuclear translocation [5] was “prevented the p65 nuclear translocation”, the “Phosphorylation of IκBα induced by TNF-α” value [6] was “dose-dependent downward trend” and the “Expression of anti-apoptotic protein Bcl-2” value [7] was “decreased in a dose-dependent manner”. The “Expression of C-caspase-3” value [8] was “dose-dependently increased” and the “Expression level of LPS-induced p-IκBα” value [9] was “effectively decreased in a dose-dependent manner”.
